Data: patent publication US20220389047A1, “O-GLCNACYLATED PROTEIN-LIKE SUBSTANCE AND FIBROSIS THERAPEUTIC DRUG CONTAINING SAME” (KYUSHU UNIVERSITY, NATIONAL UNIVERSITY CORPORATION, priority 2019, published 2022)

Legend:
[1] = test system: NHDF GDF15; experiment: Western blotting of GDF15 expression in NHDF; assay type: cell-based, human; details: 50 μg/mL, 24 hours, versus control with nothing added
Experimental: 50 μg/mL of the O-GlcNAcylated protein-like substance, the AC-GlcNAc monomer, or N-acetylglucosamine (GlcNAc) prepared in Polymerization Examples 1 to 5 was added to NHDF, and incubation was performed for 24 hours. After the incubation, the expression of NHDF GDF15 was examined by Western blotting. Furthermore, the control was one to which nothing was added.
Furthermore, 10 μg/mL, 50 μg/mL, and 100 μg/mL of the O-GlcNAcylated protein-like substances (AC-GlcNAc10, mass-average molecular weight: 4,000, number-average molecular weight: 3,100) prepared in Polymerization Example 1 were each added to NHDF, and incubation was performed for 24 hours. After the incubation, the expression of NHDF GDF15 was observed by Western blotting. Furthermore, the control was one to which nothing was added.

[2] = test system: NHDF; experiment: Chemotaxis of NHDF under agarose gel containing the substance; assay type: cell-based, human; details: FIG. 10, comparison of polymer, monomer, GlcNAc and PBS
Experimental: Using AC-GlcNAc (10-mer) as an O-GlcNAcylated protein-like substance, 250 μg/mL AC-GlcNAc (10-mer) was mixed with an agarose gel to prepare an O-GlcNAcylated protein-like substance-containing agarose gel. In addition, a PBS-containing agarose gel was prepared using PBS instead of the O-GlcNAcylated protein-like substance. A glass plate was placed in a petri dish, each agarose gel was added dropwise onto the glass plate, NHDF was further seeded on the entire glass plate, and incubation was performed for one day.
Next, agarose gels having blending amounts of 50 μg/mL, 100 μg/mL, and 250 μg/mL of the O-GlcNAcylated protein-like substance were prepared, and the chemotaxis of NHDF was evaluated in the same manner as above. […]
Next, the chemotaxis of NHDF by an O-GlcNAcylated protein-like substance was evaluated. The materials used were the O-GlcNAcylated protein-like substance prepared in Polymerization Example 1, the AC-GlcNAc monomer prepared in Polymerization Example 5, and N-acetylglucosamine (GlcNAc) and PBS used in Example 2, and the chemotaxis of NHDF was evaluated in the same manner as above. […]
Next, it was evaluated by the same method as above whether or not there was a difference in the chemotaxis of NHDF due to the difference in the degree of polymerization of the O-GlcNAcylated protein-like substance. […]

Structure (SMILES)	expression of GDF15 (Western blotting) [1]	invasion of cells under the agarose gel [2]
C=CC(=O)OCCC(=O)NC1OC(CO)[C@@H](O)C(O)C1NC(C)=O (stereo partly shown) [AC-GlcNAc monomer]	almost the same effect as the control	cells invaded under the agarose gel only with the O-GlcNAcylated protein-like substance of Polymerization Example 1
CC(=O)N[C@H]1C(O)O[C@H](CO)[C@@H](O)[C@@H]1O (stereo partly shown) [GlcNAc, N-acetylglucosamine]	almost the same effect as the control	cells invaded under the agarose gel only with the O-GlcNAcylated protein-like substance of Polymerization Example 1
